{
  "source": "patent US9359371B2",
  "about": "“Bicyclic substituted pyrimidine compounds” (Xuanzhu Pharma Co., Ltd., priority 2012, dated 2016)",
  "key": {"[1]": {"target": "PDE-5 enzyme (human blood platelets) (Homo sapiens (Human), UniProt O76074)", "assay": "PDE-5 enzyme assay, [3H]cGMP", "type": "biochemical"}, "[2]": {"target": "hERG channel (Homo sapiens (Human), UniProt Q12809)", "sequence (Q12809 whole entry)": "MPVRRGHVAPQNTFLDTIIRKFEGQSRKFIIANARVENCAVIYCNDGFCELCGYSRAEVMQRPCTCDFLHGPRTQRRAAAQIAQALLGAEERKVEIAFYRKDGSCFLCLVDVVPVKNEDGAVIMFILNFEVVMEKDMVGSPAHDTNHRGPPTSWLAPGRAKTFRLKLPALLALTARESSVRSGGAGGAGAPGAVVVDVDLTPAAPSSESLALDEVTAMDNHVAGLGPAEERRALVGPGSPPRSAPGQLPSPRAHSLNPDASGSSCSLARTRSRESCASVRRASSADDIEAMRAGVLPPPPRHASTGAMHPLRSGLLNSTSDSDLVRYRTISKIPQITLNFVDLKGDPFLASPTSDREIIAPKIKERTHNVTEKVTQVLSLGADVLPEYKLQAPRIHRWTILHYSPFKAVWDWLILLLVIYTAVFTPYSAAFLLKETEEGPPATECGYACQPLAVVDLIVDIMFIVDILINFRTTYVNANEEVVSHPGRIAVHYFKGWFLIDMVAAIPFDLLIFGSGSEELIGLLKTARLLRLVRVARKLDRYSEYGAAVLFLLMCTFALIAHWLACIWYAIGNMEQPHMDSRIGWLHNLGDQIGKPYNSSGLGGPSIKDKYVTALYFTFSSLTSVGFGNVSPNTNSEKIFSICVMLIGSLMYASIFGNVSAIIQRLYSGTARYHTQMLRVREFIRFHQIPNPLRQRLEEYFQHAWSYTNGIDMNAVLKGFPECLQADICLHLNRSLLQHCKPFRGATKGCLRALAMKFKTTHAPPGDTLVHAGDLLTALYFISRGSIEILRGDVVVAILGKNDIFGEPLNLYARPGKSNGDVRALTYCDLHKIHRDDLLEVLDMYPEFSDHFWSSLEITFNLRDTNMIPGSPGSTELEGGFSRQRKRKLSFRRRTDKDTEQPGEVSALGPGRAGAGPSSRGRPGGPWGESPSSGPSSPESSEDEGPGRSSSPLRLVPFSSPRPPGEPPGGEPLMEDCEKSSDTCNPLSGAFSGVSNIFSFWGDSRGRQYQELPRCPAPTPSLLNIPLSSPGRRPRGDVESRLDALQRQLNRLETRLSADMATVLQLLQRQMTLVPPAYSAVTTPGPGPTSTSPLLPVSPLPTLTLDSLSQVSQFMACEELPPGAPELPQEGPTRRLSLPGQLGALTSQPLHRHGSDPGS", "assay": "hERG potassium channel whole-cell patch clamp on CHO-K1 cell line", "from_the_text": "Experiment 8: Detection of Inhibitory Effect of the Compounds of the Present Invention on hERG Potassium Channel by the Patch Clamp Method\nRapidly activated human delayed rectifying outward potassium current (IKr) is mainly mediated by hERG ion channel and is involved in repolarization of human cardiac muscle cell. Clinically, blocking of the current by a drug is the main cause of QT interval prolongation syndrome, acute arrhythmia and even sudden death. The main purpose of the experiment is to test the blocking effect of the compounds of the present invention on hERG channel, and to determine the half maximal inhibitory concentration (IC50) of the compounds.\nThe experiment mainly included: (1) recording hERG current by patch clamp technique on CHO-K1 cell line which stably expressed hERG channel; (2) calculating the Inhibition rate of each concentration according to hERG tail current; (3) testing each compound at 5 concentrations to calculate IC50; (4) testing 2 cells at each concentration; (5) a positive control.\nThe structures and synthesis of Compound 88 (WO-88) and Compound 93 (WO-93) as disclosed in WO200119802A were described in Example 55 and Example 56.\nDrug for positive control: Amitriptyline hydrochloride (Sigma-Aldrich, an international standard blocker for hERG channel)\nPippette Solution (in mM): KCl 120, KOH 31.25, CaCl2 5.374, MgCl2 1.75, Ethylene glycol-bis(β-aminoethyl ether)-N,N,N′,N′-tetraacetic acid (EGTA) 10, HEPES 10, Na2-ATP 4, adjusted to a pH of 7.2 with 1N potassium hydroxide; adjusted to an osmotic pressure of 280-290 mOsm; preserved at −20° C. after filtration.\nPreparation of compounds: Some of the compounds of the present invention and Amitriptyline hydrochloride as the positive control drug were separately dissolved in 100% DMSO (Merck, 61850125001730), then prepared into stock solutions of 30 mM. Before the experiment, the above stock solutions were diluted with DMSO to a concentration of 1000-fold of the experimental concentration. Then the diluted solutions were further diluted with extracellular solution by 1:1000 to the required experimental concentration. The final concentration of DMSO in the extracellular solution was kept as 0.1%.\nStable cell line CHO-hERG was purchased from AVIVA Company. The hERG current on the cell line was recorded. For the purpose of quality control, the smallest seal resistance was no less than 500 MΩ, and the hERG current was no less than 0.4 nA.\nThe hERG current was recorded by a whole-cell patch clamp technique. Cell suspension was added into a 35-mm culture dish. The culture dish was placed on the objective table of an inverted microscope. Upon cell attachment, perfusion was conducted with the extracellular solution at a flow rate of 1-2 mL/min.\nGlass microelectrode with the pipette tip resistance of 2-5 MΩ was controlled by a microelectrode puller via a two-step process. After the whole-cell record was set up, the clamp potential was kept at −80 mV. The cell was depolarized to +60 mV by applying a voltage stimulus, and then repolarized to −50 mV to obtain the hERG tail current. Recordation was conducted after the current was stable. The extracellular perfusion was started from the lowest concentration, with 5-10 min for each concentration until the current was stable, and then conducted with the next concentration.\nStimulus payment and signal collection were performed by A/D-D/A conversion using Digidata 1440 (Molecular Devices) and pCLAMP software (Version 10.2, Molecular Devices). Signal amplification was performed on a patch clamp amplifier (Multiclamp 700B, Molecular Devices), with a filter of 1 KHz. Further data analysis and curve fitting were conducted by Clampfit (version 10.2, Molecular Devices) and Prism. The data were presented as mean value±standard deviation.\nIn the process of data analysis, the peak value and the baseline of the tail current were corrected when determining the blocking effect on hERG."}, "[3]": {"assay": "Pharmacokinetics (PK) in SD rats", "type": "in vivo", "conditions": "rat, 1 mg/kg"}, "[4]": {"conditions": "SD, plasma, po, intragastric administration"}, "[5]": {"conditions": "SD, plasma, intravenous injection"}},
  "note": "Read-outs that look alike come from different tables or passages of the source.",
  "data": [
    {"smiles": "COc1ccc(CNc2nc(N3CC4CC4C3)ncc2C(=O)N[C@H]2CC[C@H](O)CC2)cc1Cl", "note": "(stereo partly drawn) [Compound 11, 2-(3-azabicyclo[3.1.0]hexan-3-yl)-4-((3-chloro-4-methoxybenzyl)amino)-N-(trans-4-hydroxycyclohexyl)pyrimidine-5-formamide]", "values": [
      {"measurement": "IC50", "setting": "[1]; Table 2-1, repetition, read-out: IC50 on PDE-5 (repetition of Example 2)", "result": 0.41, "unit": "nM"},
      {"measurement": "IC50", "setting": "[1]; Table 2, human blood platelet enzyme, read-out: IC50 on PDE-5", "result": 1.31, "unit": "nM"},
      {"measurement": "IC50", "setting": "[1]; Table 4-1, read-out: PDE-5 (IC50 nM)", "result": 0.41, "unit": "nM"},
      {"measurement": "IC50", "setting": "[2]", "result": "> 30000", "unit": "nM"},
      {"measurement": "inhibitory effect on hERG channel (in words)", "setting": "[2]; human, CHO-K1 cells stably expressing hERG channel, pH 7.4", "result": "none of Compound 3, 11 and 50 of the present invention had a significant inhibitory effect"},
      {"measurement": "AUC(0-inf)", "setting": "[3]; [4]", "result": 604, "unit": "ng·h/mL"},
      {"measurement": "Cmax", "setting": "[3]; [4]", "result": 133, "unit": "ng/mL"},
      {"measurement": "Tmax", "setting": "[3]; [4]", "result": 1, "unit": "h"},
      {"measurement": "half-life", "setting": "[3]; [4]", "result": 2.03, "unit": "h"},
      {"measurement": "bioavailability", "setting": "[3]; SD, plasma, po, intragastric administration, read-out: F % (absolute bioavailability)", "result": 70.4, "unit": "%"},
      {"measurement": "AUC(0-inf)", "setting": "[3]; [5]", "result": 858, "unit": "ng·h/mL"},
      {"measurement": "half-life", "setting": "[3]; [5]", "result": 2.4, "unit": "h"},
      {"measurement": "AUCinf", "setting": "[3]; intragastric administration", "result": "higher exposure quality (AUC)"},
      {"measurement": "F % (absolute bioavailability)", "setting": "[3]; intragastric administration", "result": "higher exposure quality (AUC) and bioavailability than Compound WO-88"},
      {"measurement": "AUCinf", "setting": "[3]; intravenous injection", "result": "higher exposure quality (AUC)"},
      {"measurement": "Cl_obs", "setting": "[3]; intravenous injection", "result": 19.7, "unit": "mL/min/kg"},
      {"measurement": "T1/2", "setting": "[3]; intravenous injection", "result": "longer half-life"},
      {"measurement": "Vss_obs", "setting": "[3]; intravenous injection", "result": 3.44, "unit": "L/kg"}
    ]}
  ]
}
